Test results published in patent US20250154144A1 (CHILDREN'S HOSPITAL MEDICAL CENTER, priority 2021, published 2025).
pIC50, pKd: −log10 of the molar value. Read-outs that look alike come from different tables or passages of the source.

Experiments:
FLT3 = target: T1, FLT3 (Homo sapiens, UniProt P36888); test: DiscoverX KINOMEscan competition binding, FLT3; design: using full-length kinases in the presence of cellular concentrations of ATP in live, uncompromised cells
T1 sequence (P36888 27-993): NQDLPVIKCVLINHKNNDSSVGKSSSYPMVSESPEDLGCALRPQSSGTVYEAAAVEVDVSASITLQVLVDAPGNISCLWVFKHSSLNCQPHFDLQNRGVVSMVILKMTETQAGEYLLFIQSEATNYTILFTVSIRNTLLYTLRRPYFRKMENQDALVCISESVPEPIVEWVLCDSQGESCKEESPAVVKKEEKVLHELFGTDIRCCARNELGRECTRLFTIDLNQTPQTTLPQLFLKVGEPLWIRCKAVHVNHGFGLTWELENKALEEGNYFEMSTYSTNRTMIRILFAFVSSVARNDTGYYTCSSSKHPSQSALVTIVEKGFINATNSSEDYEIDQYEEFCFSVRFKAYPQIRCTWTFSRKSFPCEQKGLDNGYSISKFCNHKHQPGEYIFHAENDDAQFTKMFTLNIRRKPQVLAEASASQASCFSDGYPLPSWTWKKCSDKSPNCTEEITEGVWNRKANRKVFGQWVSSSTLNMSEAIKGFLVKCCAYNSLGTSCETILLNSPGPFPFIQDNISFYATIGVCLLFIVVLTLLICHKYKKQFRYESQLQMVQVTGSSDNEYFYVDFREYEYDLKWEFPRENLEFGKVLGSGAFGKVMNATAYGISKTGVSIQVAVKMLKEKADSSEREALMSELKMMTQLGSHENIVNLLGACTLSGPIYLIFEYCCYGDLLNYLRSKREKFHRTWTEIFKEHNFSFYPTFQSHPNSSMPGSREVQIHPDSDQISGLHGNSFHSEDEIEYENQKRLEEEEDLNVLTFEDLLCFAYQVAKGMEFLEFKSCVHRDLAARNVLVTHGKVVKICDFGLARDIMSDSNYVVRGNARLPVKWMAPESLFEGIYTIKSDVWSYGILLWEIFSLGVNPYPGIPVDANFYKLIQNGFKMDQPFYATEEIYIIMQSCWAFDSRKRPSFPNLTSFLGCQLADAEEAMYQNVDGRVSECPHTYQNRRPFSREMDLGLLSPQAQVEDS

MOLM14(D835Y) cells = type: cell-based; settings: MOLM14(D835Y) cells; for Excess HSA Score: 10 × 10
FLT3 ITD, F691L = target: T2, FLT3 ITD, F691L (Homo sapiens, UniProt P36888, F691L, form not given); test: DiscoverX KINOMEscan competition binding, FLT3 ITD, F691L; settings: read-out: FLT3 ITD, F691L Kd
T2 sequence (P36888 1-993 F691L): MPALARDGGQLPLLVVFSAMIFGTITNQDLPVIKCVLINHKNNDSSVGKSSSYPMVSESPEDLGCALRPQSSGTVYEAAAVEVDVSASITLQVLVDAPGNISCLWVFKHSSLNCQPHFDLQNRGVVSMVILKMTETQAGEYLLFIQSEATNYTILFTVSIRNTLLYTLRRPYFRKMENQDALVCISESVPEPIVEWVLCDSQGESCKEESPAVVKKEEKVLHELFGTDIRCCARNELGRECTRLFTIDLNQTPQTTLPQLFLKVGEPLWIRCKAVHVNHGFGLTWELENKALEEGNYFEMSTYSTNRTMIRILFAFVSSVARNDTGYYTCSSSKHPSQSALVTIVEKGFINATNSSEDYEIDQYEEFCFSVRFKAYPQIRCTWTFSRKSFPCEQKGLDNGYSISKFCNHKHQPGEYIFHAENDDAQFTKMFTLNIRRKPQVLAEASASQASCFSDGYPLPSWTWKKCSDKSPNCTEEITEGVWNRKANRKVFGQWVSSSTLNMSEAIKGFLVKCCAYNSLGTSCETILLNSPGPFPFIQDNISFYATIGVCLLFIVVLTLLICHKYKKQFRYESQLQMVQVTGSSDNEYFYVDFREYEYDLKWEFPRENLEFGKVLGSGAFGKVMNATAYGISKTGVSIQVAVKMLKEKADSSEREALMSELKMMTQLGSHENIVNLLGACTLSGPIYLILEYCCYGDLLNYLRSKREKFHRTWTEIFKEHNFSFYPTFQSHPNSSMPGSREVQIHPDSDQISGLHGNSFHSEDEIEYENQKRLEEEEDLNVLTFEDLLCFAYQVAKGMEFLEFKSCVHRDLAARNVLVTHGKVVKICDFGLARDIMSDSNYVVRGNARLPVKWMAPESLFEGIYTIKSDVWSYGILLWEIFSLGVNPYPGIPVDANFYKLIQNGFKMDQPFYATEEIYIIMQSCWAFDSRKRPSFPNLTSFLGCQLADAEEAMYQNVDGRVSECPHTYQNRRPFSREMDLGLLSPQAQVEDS

MOLM14 F691L cells = test: cells; type: cell-based; settings: Homo sapiens, MOLM-14, 48 h, 48 hours, Cell Titer Glo; read-out: MOLM14 F691L IC50
[1] = combination with (+)-BAY-1251152
[2] = combination with Eprenetapopt/APR-246
[3] = combination with Venetoclax (ABT-199)

pKd (FLT3) | pKd (FLT3 ITD, F691L) | pIC50 (MOLM14 F691L cells) | Compound | Excess HSA Score (MOLM14(D835Y) cells; [1]) | Excess HSA Score (MOLM14(D835Y) cells; combination with AMG-232) | Excess HSA Score (MOLM14(D835Y) cells; combination with AZD-5363) | Excess HSA Score (MOLM14(D835Y) cells; [2]) | Excess HSA Score (MOLM14(D835Y) cells; combination with Ivosidenib) | Excess HSA Score (MOLM14(D835Y) cells; combination with Lenalidomide) | Excess HSA Score (MOLM14(D835Y) cells; combination with Palbociclib) | Excess HSA Score (MOLM14(D835Y) cells; combination with Prednisolone) | Excess HSA Score (MOLM14(D835Y) cells; combination with SNDX-5613) | Excess HSA Score (MOLM14(D835Y) cells; combination with TNO-155) | Excess HSA Score (MOLM14(D835Y) cells; combination with Trametinib) | Excess HSA Score (MOLM14(D835Y) cells; combination with Ulixertinib) | Excess HSA Score (MOLM14(D835Y) cells; [3]) | Comments (MOLM14(D835Y) cells; [1]) | Comments (MOLM14(D835Y) cells; [3]) | Comments (MOLM14(D835Y) cells; combination with Lenalidomide) | Comments (MOLM14(D835Y) cells; combination with SNDX-5613)
8.28 | 8.74 | 6.36 | CC(O)(c1cn2c(-c3ccnc(N[C@H]4CNCC[C@@H]4F)n3)cnc2cn1)C(F)(F)F (single isomer, unassigned) [Compound 72] | 179 | −165.4 | −687.9 | −80.14 | −168.3 | 407.4 | −390.1 | 717.2 | −77.23 | −797.6 | 218.5 | 672.6 | −1396 | Antagonistic | Synergistic |  | 
8.72 | 10.34 | 7.07 | F[C@H]1CCNC[C@@H]1Nc1cncc(-c2cnc3cc(OC4CC4)ccn23)n1 [Compound 12, 6-(7-cyclopropoxyimidazo[1,2-a]pyridin-3-yl)-N-((3S,4S)-4-fluoropiperidin-3-yl)pyrazin-2-amine] | −346.5 | −464.9 | −869.6 | 381.9 | −10.93 | 176.4 | −72.57 | 908.8 | −187.4 | −906.9 | −87.67 | 256.8 | −1232.2388 |  | Synergistic | Antagonistic | 
9.55 | 10.04 | 7.07 | COc1cc2ncc(-c3ccnc(N[C@@H]4CCCNC4)n3)n2cc1C(C)(C)O [Compound 44, (R)-2-(7-methoxy-3-(2-(piperidin-3-ylamino)pyrimidin-4-yl)imidazo[1,2-a]pyridin-6-yl)propan-2-ol] | −808.4 | −620.9 | −290.5 | 75.21 | 21.01 | 270.3924 | −370.2 | 409.4 | 3.1084 | −655.3 | −420 | −254.1 | −1120.4885 |  | Synergistic |  | Antagonistic

Compound | pKd (FLT3) | pKd (FLT3 ITD, F691L) | pIC50 (MOLM14 F691L cells) | Excess HSA Score (MOLM14(D835Y) cells; [1]) | Excess HSA Score (MOLM14(D835Y) cells; combination with AMG-232) | Excess HSA Score (MOLM14(D835Y) cells; combination with AZD-5363) | Excess HSA Score (MOLM14(D835Y) cells; [2]) | Excess HSA Score (MOLM14(D835Y) cells; combination with Ivosidenib) | Excess HSA Score (MOLM14(D835Y) cells; combination with Lenalidomide) | Excess HSA Score (MOLM14(D835Y) cells; combination with Palbociclib) | Excess HSA Score (MOLM14(D835Y) cells; combination with Prednisolone) | Excess HSA Score (MOLM14(D835Y) cells; combination with SNDX-5613) | Excess HSA Score (MOLM14(D835Y) cells; combination with TNO-155) | Excess HSA Score (MOLM14(D835Y) cells; combination with Trametinib) | Excess HSA Score (MOLM14(D835Y) cells; combination with Ulixertinib) | Excess HSA Score (MOLM14(D835Y) cells; [3]) | Comments (MOLM14(D835Y) cells; [1]) | Comments (MOLM14(D835Y) cells; [3]) | Comments (MOLM14(D835Y) cells; combination with Lenalidomide) | Comments (MOLM14(D835Y) cells; combination with SNDX-5613)
COc1cc2ncc(-c3ccnc(N[C@H]4CNCC[C@@H]4F)n3)n2nc1C1CC1 [Compound 51, 4-(6-cyclopropyl-7-methoxyimidazo[1,2-b]pyridazin-3-yl)-N-((3S,4S)-4-fluoropiperidin-3-yl)pyrimidin-2-amine] | 9.66 | 10.10 | 6.91 |  |  |  |  |  |  |  |  |  |  |  |  |  |  |  |  | 
